# Numbered stars: 1 amine (or outer) side, 2 acyl side, 3 side chain; on linkers, the order of the positions; unused ones are H or OH. Square brackets hold non-standard residues; d marks the D form. Peptide text beside a SMILES is read from it. X1 = CN([C@H](C(=O)[*:2])[C@@H](O)C(N)=O)[*:1]; Pro(4S-Me) = C[C@@H]1CN[C@H](C(=O)O)C1; N(OH)Ala = C[C@H](NO)C(=O)O; Lac = C[C@H](O)C(=O)O; Dha = C=C(N)C(=O)O
# Tests used:
# [1] = from C=CCON(C(=O)[C@H]([C@@H](O[Si](C)(C)C(C)(C)C)C(=O)NC(c1ccccc1)(c1ccccc1)c1ccccc1)N(C)C(=O)C(C)OC(=O)[C@@H]1CC(C)CN1C(=O)OCC1c2ccccc2-c2ccccc21)[C@@H](C)C(=O)N[C@@H](C[Se]c1ccccc1)C(=O)OCC1c2ccccc2-c2ccccc21; amide bond; PyBOP/HOAt/DIEA; CH2Cl2; 0.61 mM; 25.0 °C; 24.0 h; 2 steps
# [2] = test system: HCT116 colorectal cancer cells; assay: MTT cell viability assay, parental HCT116; type: cell-based, human; conditions: for IC50: 48 h treatment, read-out: IC50 against HCT116 colorectal cancer cells
# Procedure: (§1) Parental HCT116, HCT116^HIF-1α−/−HIF-2α−/−, HCT116^HIF-1α−/−, HCT116^HIF-2α−/−, HCT116^WT KRAS along with normal colon cell line CCD841-CoN were cultured in Dulbecco's modified Eagle medium (DMEM, Life Technologies, USA) supplemented with 10% Fetal Bovine Serum (FBS, Sigma, USA) and maintained in 5% CO2 at 37° C. HCT116 cells (8,000 cells/well) and normal cells (3,000 cells/well) were seeded in 96-well plates, allowed to attach overnight and then treated with different concentrations of GB1 (1a) or solvent control (0.5% DMSO). Cell viability was measured 48 h following treatment with MTT dye using manufacturer's protocol (Promega). IC50 was determined by non-linear regression analysis using GraphPad Prism 8. Data are represented as average±SD (n=3).
# [3] = test system: CCD841-CoN normal epithelial colon cells; assay: MTT cell viability assay, normal colon cells; type: cell-based; conditions: 48 h treatment
# Procedure: as §1
# HCT116^HIF-2α−/− cells = assay: MTT cell viability assay, isogenic HCT116 HIF-2α knockout; type: cell-based, human; conditions: 48 h, compared among isogenic lines
# Procedure: as §1
# [4] = test system: HCT116^HIF-1α−/−HIF-2α−/− cells; assay: MTT cell viability assay, isogenic HCT116 double knockout; type: cell-based, human; conditions: 48 h, versus parental HCT116
# Procedure: as §1
# HCT116^HIF-1α−/− cells = assay: MTT cell viability assay, isogenic HCT116 HIF-1α knockout; type: cell-based, human; conditions: 48 h, versus parental HCT116
# Procedure: as §1
# HCT116^WT KRAS cells = assay: MTT cell viability assay, oncogenic KRAS knockout; type: cell-based, human; conditions: 48 h, versus parental HCT116
# Procedure: as §1
# HCT116 cells [5] = assay: HCT116 cell cycle analysis (propidium iodide, flow cytometry); type: cell-based, human; conditions: 320 nM, 1 μM, 3.2 μM, 24 h
# Procedure: FIG. 25 depicts a cell cycle analysis. HCT116 cells were treated with GB1 (320 nM, 1 μM, 3.2 μM) or vehicle control (0.25% DMSO) for 24 h and DNA content assessed by flow cytometry of propidium iodide stained cells.
# HCT116 cells were seeded in 6-well plates (400,000 cells/well, DMEM/10% FBS and allowed to attach overnight prior to treatment with GB1. Media was replaced by fresh DMEM/10% FBS after 24 h of incubation and treated with compound and solvent control (0.25% DMSO) for 24 h. The medium in each well was collected separately, and the cells washed with 500 μL PBS and collected into the corresponding tubes. Cells were detached using trypsin (Invitrogen) and collected into the corresponding tubes and centrifuged at 400 g for 10 min at 4° C. The supernatant was discarded and the cell pellets were resuspended in 500 μL ice-cold PBS, centrifuged at 400 g for 10 min at 4° C. and supernatant was discarded. The cell pellets were resuspended in 300 μL ice-cold PBS and 700 μL ice-cold EtOH was added slowly to each cell suspension with gentle pipetting. Cells were incubated at −20° C. overnight and centrifuged at 400 g for 10 min at 4° C. next day. […] Fluorescence from propidium iodide-DNA complexes were quantified using FACScan (BD Biosciences LSRFortessa) and data were analyzed using ModFit LT (Verity Software House).
# VEGFA = assay: HIF target gene (VEGFA) expression by RT-qPCR; type: cell-based, human; conditions: 3.2 μM (4×IC50), 16 h, parental HCT116 cells, β-actin endogenous control
# Procedure: FIG. 26 depicts HIF target gene (VEGFA) expression after 16 h exposure of parental HCT116 cells to GB1 (3.2 μM) or vehicle (0.25% DMSO). RNA was isolated, reverse transcribed and subjected to qPCR using TaqMan analysis. β-actin served as endogenous control. Error bars indicate mean±SD of three replicates (student t test, *p<0.05).
# HCT116 cells were seeded in 6-well plates at a density of 4×10^5 per well and incubated overnight for cells to attach. Cells were treated with 3.2 μM GB1 or 0.25% DMSO (vehicle). RNA was isolated 16 h later using the RNeasy mini kit (QIAGEN, Valencia, CA). Total RNA was quantified using NanoDrop 2000. cDNA synthesis was carried out using SuperScript II Reverse Transcriptase (Invitrogen, Carlsbad, CA) and oligo (dT) (Invitrogen) from 2 μg of total RNA. The qPCR after reverse transcription (RT-qPCR) was performed on a 25 μL reaction solution containing a […] aliquot of cDNA, 12.5 μL of TaqMan gene expression master mix, 1.25 μL of probes, and 11 μL RNase-free water. qPCR was carried out on an ABI 7300 sequence detection system using the thermocycler program: 2 min at 50° C., 10 min at 95° C., and 15 s at 95° C. (40 cycles) and 1 min at 60° C. Experiments were performed in triplicate. Probes for target gene: VEGFA (Hs00900055_m1) and for endogenous control: β-actin (Hs99999903_m1). […]
# HCT116 cells [6] = assay: NCI-60 screen (sulforhodamine B assay), HCT116; type: cell-based, human; conditions: NCI-60 data, read-out: GI50 against HCT116 cells
# Excerpt: (§2) FIG. 27 depicts a heatmap for the performance of GB1 across cell lines in the NCI-60 screen using three different values (growth-inhibitory effect, GI50; cytostatic effect, TGI; cytotoxic effect, LC50; concentration in M).
# COLO205 cells = assay: NCI-60 screen (sulforhodamine B assay), COLO205; type: cell-based; conditions: NCI-60 data, read-out: GI50 against COLO205 cells
# Excerpt: as §2
# [7] = test system: melanoma (SK-MEL-5) cancer cells; assay: NCI-60 screen, SK-MEL-5; type: cell-based; conditions: NCI-60 data
# Excerpt: as §2
# [8] = test system: ovarian (OVCAR-3) cancer cells; assay: NCI-60 screen, OVCAR-3; type: cell-based; conditions: NCI-60 data
# Excerpt: as §2
# [9] = test system: prostate (DU-145) cancer cells; assay: NCI-60 screen, DU-145; type: cell-based; conditions: NCI-60 data
# Excerpt: as §2
# NCI-60 cell lines = conditions: versus paclitaxel, eribulin, colchicine and vinca bis-indole alkaloid derivatives
# Excerpt: Furthermore, cervical and breast cancers are relevant indications, prompting additional studies in these cell types^35.
# tubulin = assay: Tubulin polymerization assay (fluorescence based in vitro kit); type: biochemical; conditions: tubulin 2 mg/mL, 37° C., 1 hour
# Procedure: Tubulin polymerization was performed using fluorescence based in vitro polymerization kit (Cytoskeleton, #BK011P) per the manufacturer recommendation. Briefly, the provided tubulin was reconstituted to 10 mg/mL stock, as recommended, and used at final concentration of 2 mg/mL in 80 mM PIPES pH 6.9, 2.0 mM MgCl2, 0.5 mM EGTA, 1.0 mM GTP and 15% glycerol for the assays. The compound was prepared in 3-fold dilutions and kept on ice until the assay was started. Buffer components and tubulin stocks were kept on ice until use. The assay plate was pre-warmed at 37° C. for 10 minutes and the compounds were added to the plate wells at 5 uL (<10% DMSO) for 1 minute to warm. Fifty microliters of tubulin reaction mix (2 mg/mL in 80 mM PIPES pH 6.9, 2.0 mM MgCl2, 0.5 mM EGTA, 1.0 mM GTP and 15% glycerol) was added to each well and mixed gently with the inhibitor to avoid bubble formation. The plate was read on FlexStation3 reader (Molecular Devices) at 360 nm excitation/450 nm emission, every minute for 1 hours at 37° C. Decrease in fluorescent signal indicated inhibition of polymerization.
# HeLa cells = assay: Caspase-3/7 activity (Caspase-Glo 3/7) in HeLa cells; type: cell-based; conditions: increasing concentrations, 14 h, 24 h and 36 h
# Procedure: FIG. 29 depicts that GB1 causes apoptosis in HeLa cells with increased caspase activity. HeLa cells were treated with increasing concentrations of GB1 and combretastatin-4 (CA-4) (100 nM) using 0.5% DMSO as solvent control. Caspase-3/7 activity was measured using Caspase-Glo 3/7 reagent kit at 14 h, 24 h and 36 h. Data represents average of three replicates with ±SD. The p-values were calculated using two-tailed Student t-test; *p<0.05, **p<0.01, ***p<0.005.
# [10] = Qualitative test for Fe(III) chelating ability; type: physicochemical; conditions: FeCl3 solution in ethanol (5% wt), orange spot
# Excerpt: We applied a solution of GB1 (1a) in CH2Cl2 to reverse TLC (C18) (MeOH/H2O 1:1, v/v), then dipped the TLC into FeCl3 solution in ethanol (5% wt).
Compound,"ring closure, yield of all isomers [1]","antiproliferative activity, relative susceptibility of parental HCT116 cells ([2]; 48 h, compared among isogenic lines)",IC50 [2],effect on the viability of CCD-841CoN normal epithelial colon cells [3],IC50 ([3]; read-out: IC50 against normal mucosal colon cells),"antiproliferative activity, relative susceptibility of HCT116^HIF-2α−/− (HCT116^HIF-2α−/− cells)",potency and efficacy against HCT116^HIF-1α−/−HIF-2α−/− [4],potency and efficacy against HCT116^HIF-1α−/− (HCT116^HIF-1α−/− cells),potency and efficacy against oncogenic KRAS knockout (HCT116^WT KRAS) (HCT116^WT KRAS cells),cell cycle effect (DNA content) (HCT116 cells [5]),HIF-1α target gene VEGFA expression (VEGFA),GI50 (HCT116 cells [6]),GI50 (COLO205 cells),susceptibility of SK-MEL-5 melanoma cells [7],susceptibility of OVCAR-3 ovarian cancer cells [8],susceptibility of DU-145 prostate cancer cells [9],COMPARE correlation (P) of cytotoxicity profile with antimitotic/tubulin agents (NCI-60 cell lines),inhibition of tubulin polymerization in vitro (tubulin),caspase-3/7 activity / apoptosis in HeLa cells (HeLa cells),Fe(III) chelating ability (FeCl3 on TLC) [10]
C=CCON1C(=O)[C@H]([C@@H](O[Si](C)(C)C(C)(C)C)C(=O)NC(c2ccccc2)(c2ccccc2)c2ccccc2)N(C)C(=O)C(C)OC(=O)[C@@H]2CC(C)CN2C(=O)[C@H](C[Se]c2ccccc2)NC(=O)[C@@H]1C (stereo partly drawn),60.3%,–,–,–,–,–,–,–,–,–,–,–,–,–,–,–,–,–,–,–
"C=C1NC(=O)[C@H](C)N(O)C(=O)[C@H]([C@@H](O)C(N)=O)N(C)C(=O)[C@H](C)OC(=O)[C@@H]2C[C@H](C)CN2C1=O [GB1, Gatorbulin-1] (cyclo([Dha][Pro(4S-Me)][Lac][X1][N(OH)Ala]))",–,most susceptible,800 nM,marginal effect,> 10000 nM,most susceptible,reduced,reduced,reduced,induced G2/M accumulation,downregulation,306 nM,92 nM,susceptible,susceptible,susceptible,0.75-0.85,directly inhibits tubulin polymerization,induces apoptosis,positive reaction
Gatorbulin-2 [GB2],–,–,> 10000 nM,–,–,–,–,–,–,–,–,–,–,–,–,–,–,–,–,–

# Reference: patent US12729209B2, “Macrocyclic compounds and methods of treatment” (University of Florida Research Foundation, Incorporated, priority 2020, dated 2026)
